# Experimental data from patent US11760722B2 (priority 2022, dated 2023).
# Values joined by “and” are separate entries in the source; they are usually repeats but may differ in a detail not shown here. Equal values may be shown once. Read-outs that look alike come from different tables or passages of the source.
# Key:
# [1] = tested on: SARS-CoV-2 replicon; experiment: microbe, parasite or virus in culture; format: cell-based
# [2] = tested on: human coronavirus (HCoV) 229E; experiment: microbe, parasite or virus in culture; format: cell-based, human coronavirus 229E; conditions: MRCS cells, HCoV 229E, 3 days, CellTiter Glo, read-out: 229E CPE EC50
# Experimental: Test compounds were provided by the sponsor. Reference compound remdesivir was provided by WuXi AppTec. Compounds were assayed at 8 concentrations (to be defined by sponsor), in duplicate wells.
# MRCS cells were obtained from the ATCC, and maintained in the Minimum Essential Medium supplemented with 10% FBS, 1% L-glutamine, 1% NEAA and 1% penicillin-streptomycin. Minimum Essential Medium supplemented with 5% FBS, 1% L-glutamine, 1% NEAA and 1% penicillin-streptomycin was used as the assay medium.
# Cells were seeded in 96 well plates, in 100 μl per well of assay medium, and cultured at 37° C. and 5% CO2 overnight. Next day, test compound was diluted with assay medium and then added into the cells, 50 μl per well. Then 50 μl per well of assay medium diluted virus was added. The final volume of the cell culture was 200 μl per well. […] The CPE were measured by CellTiter Glo following the manufacturer's manual. The antiviral activity of compounds was calculated based on the protection of the virus-induced CPE at each concentration normalized by the virus control.
# EC50 and CC50 values were calculated using the GraphPad Prism software using the nonlinear regression model of log(inhibitor) vs. response—Variable slope (four parameters).
# [3] = Severe acute respiratory syndrome coronavirus 2, Huh-7, 24 h; read-out: Replicon EC50
# [4] = unidentified human coronavirus, 72 h
Structure (SMILES),"EC50 [1, 3]","EC50 [2, 4]",other results
C=CC(=O)N[C@H](C(=O)N1C[C@H]2[C@@H]([C@H]1C(=O)N[C@H](C#N)C[C@@H]1CCNC1=O)C2(C)C)C(C)(C)C [Compound 61],2740 nM,,
CC(C)(C)[C@H](NS(=O)(=O)c1ccc2ccccc2c1)C(=O)N1C[C@H]2[C@@H]([C@H]1C(=O)N[C@H](C#N)C[C@@H]1CCNC1=O)C2(C)C [Compound 102],,84 nM,EC50 [2]: 125 nM
CC(C)(C)NC(=S)N[C@H](C(=O)N1C[C@H]2[C@@H]([C@H]1C(=O)N[C@H](C#N)C[C@@H]1CCNC1=O)C2(C)C)C(C)(C)C [Compound 56],,,"EC50 ([1]; Severe acute respiratory syndrome coronavirus 2, Huh-7, 24 h, read-out: Replicon EC50): 370 nM"
CC(C)(C)[C@H](NC(=O)CC12CC(C(F)(F)F)(C1)C2)C(=O)N1C[C@H]2[C@@H]([C@H]1C(=O)N[C@H](C#N)C[C@@H]1CCNC1=O)C2(C)C [Compound 68],1920 nM,,
Cc1csc(S(=O)(=O)N[C@H](C(=O)N2C[C@H]3[C@@H]([C@H]2C(=O)N[C@H](C#N)C[C@@H]2CCNC2=O)C3(C)C)C(C)(C)C)c1 [Compound 112],62 nM,,EC50 ([1]; read-out: Replicon EC50): 86 nM
CCCc1ccc(S(=O)(=O)N[C@H](C(=O)N2C[C@H]3[C@@H]([C@H]2C(=O)N[C@H](C#N)C[C@@H]2CCNC2=O)C3(C)C)C(C)(C)C)s1 [Compound 171],29 nM,,
CC1(C(=O)N[C@H](C(=O)N2C[C@H]3[C@@H]([C@H]2C(=O)N[C@H](C#N)C[C@@H]2CCNC2=O)C3(C)C)C(C)(C)C)CCCN1 (stereo partly drawn) [Compound 65],18700 nM,,
CN([C@H](C(=O)N1C[C@H]2[C@@H]([C@H]1C(=O)N[C@H](C#N)C[C@@H]1CCNC1=O)C2(C)C)C(C)(C)C)S(=O)(=O)c1ccc2ccccc2c1 [Compound 150],2910 nM,,
COC1(CC(=O)N[C@H](C(=O)N2C[C@H]3[C@@H]([C@H]2C(=O)N[C@H](C#N)C[C@@H]2CCNC2=O)C3(C)C)C(C)(C)C)CCC1 [Compound 67],> 30000 nM,,
CC(C)(C)[C@H](NS(=O)(=O)c1cccs1)C(=O)N1C[C@H]2[C@@H]([C@H]1C(=O)N[C@H](C#N)C[C@@H]1CCNC1=O)C2(C)C [Compound 100],,432 nM,EC50 [2]: 636 nM
CC(C)(C)[C@H](NC(=O)C1CC2(CCC2)C1)C(=O)N1C[C@H]2[C@@H]([C@H]1C(=O)N[C@H](C#N)C[C@@H]1CCNC1=O)C2(C)C [Compound 63],730 nM,,
CC(C)(C)[C@H](NS(=O)(=O)c1ccsc1)C(=O)N1C[C@H]2[C@@H]([C@H]1C(=O)N[C@H](C#N)C[C@@H]1CCNC1=O)C2(C)C [Compound 139],140 nM,,EC50 ([1]; read-out: Replicon EC50): 160 nM
CNC(C)(C)C(=O)N[C@H](C(=O)N1C[C@H]2[C@@H]([C@H]1C(=O)N[C@H](C#N)C[C@@H]1CCNC1=O)C2(C)C)C(C)(C)C [Compound 59],16200 nM,,
CC(C)(C)[C@H](NC(=O)C(F)(F)C(F)(F)C(F)(F)F)C(=O)N1C[C@H]2[C@@H]([C@H]1C(=O)N[C@H](C#N)C[C@@H]1CCNC1=O)C2(C)C [Compound 133],,122 nM,EC50 [2]: 160 nM and 164 nM
Cc1ccc(S(=O)(=O)N[C@H](C(=O)N2C[C@H]3[C@@H]([C@H]2C(=O)N[C@H](C#N)C[C@@H]2CCNC2=O)C3(C)C)C(C)(C)C)cc1 [Compound 96],,246 nM,EC50 [2]: 339 nM
CC(C)(C)[C@H](NS(=O)(=O)c1ccc(C(F)(F)F)cc1)C(=O)N1C[C@H]2[C@@H]([C@H]1C(=O)N[C@H](C#N)C[C@@H]1CCNC1=O)C2(C)C [Compound 44],,,EC50 ([1]; read-out: Replicon EC50): > 30000 nM
CC(C)(C)[C@H](NC(=O)C(Cl)(Cl)C(F)(F)F)C(=O)N1C[C@H]2[C@@H]([C@H]1C(=O)N[C@H](C#N)C[C@@H]1CCNC1=O)C2(C)C [Compound 71],,302 nM,EC50 [2]: 321 nM
"CN(C)S(=O)(=O)N[C@H](C(=O)N1C[C@H]2[C@@H]([C@H]1C(=O)N[C@H](C#N)C[C@@H]1CCNC1=O)C2(C)C)C(C)(C)C [Compound 47, (1R,2S,5S)—N—((S)-1-cyano-2-((S)-2-oxopyrrolidin-3-yl)ethyl)-3-((S)-2-((N,N-dimethylsulfamoyl)amino)-3,3-dimethylbutanoyl)-6,6-dimethyl-3-azabicyclo[3.1.0]hexane-2-carboxamide]",,6190 nM,EC50 [2]: 7320 nM
Cc1c(S(=O)(=O)N[C@H](C(=O)N2C[C@H]3[C@@H]([C@H]2C(=O)N[C@H](C#N)C[C@@H]2CCNC2=O)C3(C)C)C(C)(C)C)sc2ccc(F)cc12 [Compound 148],16 nM,,
CC(C)(C)[C@H](NC(=O)Cc1ccc2c(c1)CCC2)C(=O)N1C[C@H]2[C@@H]([C@H]1C(=O)N[C@H](C#N)C[C@@H]1CCNC1=O)C2(C)C [Compound 82],,449 nM,EC50 [2]: 515 nM
CCNC(=S)N[C@H](C(=O)N1C[C@H]2[C@@H]([C@H]1C(=O)N[C@H](C#N)C[C@@H]1CCNC1=O)C2(C)C)C(C)(C)C [Compound 72],,718 nM,EC50 [2]: 890 nM
CC(C)(C)[C@H](NS(=O)(=O)c1ccc(C2CC2)cc1)C(=O)N1C[C@H]2[C@@H]([C@H]1C(=O)N[C@H](C#N)C[C@@H]1CCNC1=O)C2(C)C [Compound 121],,56 nM,EC50 [2]: 66 nM

Structure (SMILES),"EC50 [1, 3]","EC50 [2, 4]",other results
CC(C)(C)OC(=O)N(C(=O)N1C[C@H]2[C@@H]([C@H]1C(=O)N[C@H](C#N)C[C@@H]1CCNC1=O)C2(C)C)[C@@H]1C[C@H]1C(F)F [Compound 60],> 30000 nM,,
CC(C)(C)[C@H](NC(=O)CS(C)(=O)=O)C(=O)N1C[C@H]2[C@@H]([C@H]1C(=O)N[C@H](C#N)C[C@@H]1CCNC1=O)C2(C)C [Compound 64],990 nM,,
Cc1cc(C)c(S(=O)(=O)N[C@H](C(=O)N2C[C@H]3[C@@H]([C@H]2C(=O)N[C@H](C#N)C[C@@H]2CCNC2=O)C3(C)C)C(C)(C)C)c(C)c1 [Compound 152],65 nM,,
Cc1ccc(S(=O)(=O)N[C@H](C(=O)N2C[C@H]3[C@@H]([C@H]2C(=O)N[C@H](C#N)C[C@@H]2CCNC2=O)C3(C)C)C(C)(C)C)s1 [Compound 118],,322 nM,
CC(C)(C)[C@H](NS(=O)(=O)N1CC2CC1C2)C(=O)N1C[C@H]2[C@@H]([C@H]1C(=O)N[C@H](C#N)C[C@@H]1CCNC1=O)C2(C)C [Compound 62],1490 nM,,
CC(C)(C)[C@H](NC(=O)c1ccc(S(F)(F)(F)(F)F)cc1)C(=O)N1C[C@H]2[C@@H]([C@H]1C(=O)N[C@H](C#N)C[C@@H]1CCNC1=O)C2(C)C [Compound 147],> 10000 nM,,
COc1ccsc1S(=O)(=O)N[C@H](C(=O)N1C[C@H]2[C@@H]([C@H]1C(=O)N[C@H](C#N)C[C@@H]1CCNC1=O)C2(C)C)C(C)(C)C [Compound 127],,711 nM,
COC12CCC(C(=O)N[C@H](C(=O)N3C[C@H]4[C@@H]([C@H]3C(=O)N[C@H](C#N)C[C@@H]3CCNC3=O)C4(C)C)C(C)(C)C)(CC1)CC2 [Compound 69],10300 nM,,
C#CCC(=O)N[C@H](C(=O)N1C[C@H]2[C@@H]([C@H]1C(=O)N[C@H](C#N)C[C@@H]1CCNC1=O)C2(C)C)C(C)(C)C [Compound 136],300 nM,,EC50 ([1]; read-out: Replicon EC50): 320 nM and 420 nM and 540 nM
CC(C)(C)[C@H](NS(=O)(=O)c1cccc2ccccc12)C(=O)N1C[C@H]2[C@@H]([C@H]1C(=O)N[C@H](C#N)C[C@@H]1CCNC1=O)C2(C)C [Compound 85],,238 nM,EC50 [2]: 368 nM
CN1CCCC1C(=O)N[C@H](C(=O)N1C[C@H]2[C@@H]([C@H]1C(=O)N[C@H](C#N)C[C@@H]1CCNC1=O)C2(C)C)C(C)(C)C (stereo partly drawn) [Compound 58],4720 nM,,
CC(C)(C)[C@H](NC(=O)C(F)(F)C(F)(F)C(F)(F)C(F)(F)F)C(=O)N1C[C@H]2[C@@H]([C@H]1C(=O)N[C@H](C#N)C[C@@H]1CCNC1=O)C2(C)C [Compound 146],80 nM,,EC50 ([1]; read-out: Replicon EC50): 85 nM
CC(C)(C)[C@H](NS(=O)(=O)c1ccc(F)s1)C(=O)N1C[C@H]2[C@@H]([C@H]1C(=O)N[C@H](C#N)C[C@@H]1CCNC1=O)C2(C)C [Compound 113],,388 nM,
CC(C)(C)[C@H](NC(=O)C(F)(F)OCC(F)(F)F)C(=O)N1C[C@H]2[C@@H]([C@H]1C(=O)N[C@H](C#N)C[C@@H]1CCNC1=O)C2(C)C [Compound 144],110 nM,,EC50 ([1]; read-out: Replicon EC50): 180 nM
CCN([C@H](C(=O)N1C[C@H]2[C@@H]([C@H]1C(=O)N[C@H](C#N)C[C@@H]1CCNC1=O)C2(C)C)C(C)(C)C)S(=O)(=O)c1ccc(OC)cc1 [Compound 153],2110 nM,,
CN([C@H](C(=O)N1C[C@H]2[C@@H]([C@H]1C(=O)N[C@H](C#N)C[C@@H]1CCNC1=O)C2(C)C)C(C)(C)C)S(=O)(=O)c1ccc(Cl)s1 [Compound 155],> 10000 nM,,
CCOc1ccccc1S(=O)(=O)N[C@H](C(=O)N1C[C@H]2[C@@H]([C@H]1C(=O)N[C@H](C#N)C[C@@H]1CCNC1=O)C2(C)C)C(C)(C)C [Compound 143],65 nM,,EC50 ([1]; read-out: Replicon EC50): 130 nM
CC(C)(C)[C@H](NC(=O)c1cccc(S(F)(F)(F)(F)F)c1)C(=O)N1C[C@H]2[C@@H]([C@H]1C(=O)N[C@H](C#N)C[C@@H]1CCNC1=O)C2(C)C [Compound 145],3960 nM,,EC50 ([1]; read-out: Replicon EC50): 4000 nM
CN([C@H](C(=O)N1C[C@H]2[C@@H]([C@H]1C(=O)N[C@H](C#N)C[C@@H]1CCNC1=O)C2(C)C)C(C)(C)C)S(=O)(=O)c1cccc2ccccc12 [Compound 156],1400 nM,,
CC(C)(C)[C@H](NC(=O)CC(C(F)(F)F)C(F)(F)F)C(=O)N1C[C@H]2[C@@H]([C@H]1C(=O)N[C@H](C#N)C[C@@H]1CCNC1=O)C2(C)C [Compound 149],240 nM,,
CC(C)(C)[C@H](NC(=S)Nc1cccc(C(F)(F)F)c1)C(=O)N1C[C@H]2[C@@H]([C@H]1C(=O)N[C@H](C#N)C[C@@H]1CCNC1=O)C2(C)C [Compound 52],410 nM,,
